We go through 13 molecules from patent publication US8153674B2, “Organic compounds” (Novartis AG, priority 2006, dated 2012).

The target in data set [1] is T1, aldosterone synthase (CYP11B2) (Homo sapiens, UniProt P19099).
T1 construct: host or cells: NCI-H295R
T1 sequence (P19099 25-503): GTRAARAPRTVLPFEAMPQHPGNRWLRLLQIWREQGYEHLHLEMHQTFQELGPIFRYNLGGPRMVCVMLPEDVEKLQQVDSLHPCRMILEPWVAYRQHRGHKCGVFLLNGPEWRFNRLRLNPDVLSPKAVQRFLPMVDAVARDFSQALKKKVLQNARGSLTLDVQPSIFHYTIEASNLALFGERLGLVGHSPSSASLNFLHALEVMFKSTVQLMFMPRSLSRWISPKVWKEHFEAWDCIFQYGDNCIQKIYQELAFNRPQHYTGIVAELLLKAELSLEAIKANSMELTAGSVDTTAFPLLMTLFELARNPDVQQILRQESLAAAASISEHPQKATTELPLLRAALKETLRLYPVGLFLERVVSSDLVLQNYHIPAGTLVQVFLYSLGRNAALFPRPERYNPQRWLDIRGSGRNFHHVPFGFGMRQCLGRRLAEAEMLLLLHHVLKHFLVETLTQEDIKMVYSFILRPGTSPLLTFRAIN
The data set can be described thus: In vitro aldosterone synthase inhibition: cellular aldosterone production in Ang II-stimulated NCI-H295R cells. Type of data set: cell-based. The settings on record: 1 μM Ang II, 24 hr. From the text:
In particular, the aldosterone synthase inhibitory activities in vitro can be determined by the following assay.
Human adrenocortical carcinoma NCI-H295R cell line is obtained from American Type Culture Collection (Manassas, Va.). Insulin/transferrin/selenium (ITS)-A supplement (100×), DMEM/F-12, antibiotic/antimycotic (100×), and fetal calf serum (FCS) are purchased from Gibco (Grand Island, N.Y.). Anti-mouse PVT scintillation proximity assay (SPA) beads and NBS 96-well plates are obtained from Amersham (Piscataway, N.J.) and Corning (Acton, Mass.), respectively. Solid black 96-well flat bottom plates are purchased from Costar (Corning, N.Y.). Aldosterone and angiotensin (Ang II) are purchased from Sigma (St. Louis, Mo.). D-[1,2,6,7-^3H(N)]aldosterone is acquired from PerkinElmer (Boston, Mass.). Nu-serum is a product of BD Biosciences (Franklin Lakes, N.J.).
For in vitro measurement of aldosterone activity, human adrenocortical carcinoma NCI-H295R cells are seeded in NBS 96-well plates at a density of 25,000 cells/well in 100 μl of a growth medium containing DMEM/F12 supplemented with 10% FCS, 2.5% Nu-serum, 1 μg ITS/ml, and 1× antibiotic/antimycotic. The medium is changed after culturing for 3 days at 37° C. under an atmosphere of 5% CO2/95% air. On the following day, cells are rinsed with 100 μl of DMEM/F12 and incubated with 100 μl of treatment medium containing 1 μM Ang II and a compound at different concentrations in quadruplicate wells at 37° C. for 24 hr. At the end of incubation, 50 μl of medium is withdrawn from each well for measurement of aldosterone production by an RIA using mouse anti-aldosterone monoclonal antibodies.
Measurement of aldosterone activity can also be performed using a 96-well plate format. Each test sample is incubated with 0.02 μCi of D-[1,2,6,7-^3H(N)]aldosterone and 0.3 μg of anti-aldosterone antibody in phosphate-buffered saline (PBS) containing 0.1% Triton X-100, 0.1% bovine serum albumin, and 12% glycerol in a total volume of 200 μl at room temperature for 1 hr. Anti-mouse PVT SPA beads (50 μl) are then added to each well and incubated overnight at room temperature prior to counting in a Microbeta plate counter. The amount of aldosterone in each sample is calculated by comparing with a standard curve generated using known quantities of the hormone.

Another data set has as its target T2, CYP11B1 (Homo sapiens, UniProt P15538).
T2 construct: Thus, the NCI-H295R cells have Cyp11 B1 (steroid 11 p-hydroxylase); host or cells: NCI-H295R
T2 sequence (P15538 25-503): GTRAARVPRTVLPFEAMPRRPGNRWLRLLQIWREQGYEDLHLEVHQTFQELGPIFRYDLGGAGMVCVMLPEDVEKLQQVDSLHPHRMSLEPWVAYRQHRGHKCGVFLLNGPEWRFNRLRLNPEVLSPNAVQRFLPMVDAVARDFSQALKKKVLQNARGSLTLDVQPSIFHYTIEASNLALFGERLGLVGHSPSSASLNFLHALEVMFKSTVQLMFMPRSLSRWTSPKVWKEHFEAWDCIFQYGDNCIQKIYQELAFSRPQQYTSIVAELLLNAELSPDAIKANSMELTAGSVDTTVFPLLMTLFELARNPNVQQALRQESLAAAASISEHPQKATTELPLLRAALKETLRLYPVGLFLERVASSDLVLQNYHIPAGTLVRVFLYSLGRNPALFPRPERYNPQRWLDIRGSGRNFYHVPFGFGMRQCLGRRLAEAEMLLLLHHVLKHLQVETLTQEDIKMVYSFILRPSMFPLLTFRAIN
Nature of the data set: In vitro CYP11B1 inhibition in NCI-H295R cells (steroid release, radioimmunoassay). The settings on record: I %: percentage of inhibition; for inhibition at 0.1 µM: NCI-H295R, 100 nM. Type of data set: cell-based. From the text: The in vitro inhibitory activities for CYP11B1 can be determined by the following assay.
The cell line NCI-H295R was originally isolated from an adrenocortical carcinoma and has been characterized in the literature through the stimulable secretion of steroid hormones and the presence of the enzymes essential for steroidogenesis. Thus, the NCI-H295R cells have Cyp11 B1 (steroid 11 p-hydroxylase). The cells show the physiological property of zonally undifferentiated human foetal adrenocortical cells which, however, have the capacity to produce the steroid hormones which are formed in the three, phenotypically distinguishable zones in the adult adrenal cortex. The NCI-H295R cells (American Type Culture Collection, ATCC, Rockville, Md., USA) are grown in Dulbeoco's Modified Eagle'Ham F-12 Medium (DME/F12), which has been I supplemented with Ulroser SF Serum(Soprachem, Cergy-Saint-Christophe, France), insulin, transferrin, selenite (1-T-S, Becton Dickinson Biosiences, Franklin lakes, NJ, USA) and antibiotics in 75 cm^2 cell culture vessels at 37° C. and in a 95% air-5% carbon dioxide atmosphere. The cells are subsequently transferred for colony formation into a 24-well incubation vessel. They are cultivated there in DME/F12 medium, which is now supplemented with 0.1% bovine serum instead of Ultroser SF for 24 hours. The experiment is initiated by cultivating the cells in DME/F12 medium which is supplemented with 0.1% bovine serum albumin and test compound, in the presence or absence of cell stimulants, for 72 hours. The test substance is added in a concentration range from 0.2 nanomolar to […]. Cell stimulants which can be used are angiotensin 11 ([…] or 100 nanomolar), potassium ions (16 millimolar), forskolin (10 micromolar) or a combination of two stimulants.
The excretion of aldosterone, cortisol, corticosterone and estradiol/estrone into the culture medium can be detected and quantified by commercially available, specific monoclonal antibodies in radioimmunoassays in accordance with the manufacturers instructions.
Inhibition of the release of certain steroids can be used as a measure of the respective enzyme inhibition by the added test compounds. The dose-dependent inhibition of enzymic activity by a compound is calculated by means of an inhibition plot which is characterized by an IC50.
The IC50 values for active test compounds are ascertained by a simple linear regression analysis in order to construct inhibition plots without data weighting. The inhibition plot is calculated by fitting a 4-parameter logistic function to the raw data points using the least squares method. The equation of the 4-parameter logistic function is calculated as follows: Y=(d−a)/((1+(x/c)b))+a I where: a=minimum data level b=gradient I c=ICED, d=maximum data level x=inhibitor concentration.

In turn, “3-(3,3-dimethyl-1-oxo-isochroman-4-yl)-3H-imidazole-4-carbaldehyde oxime (trans) [Entry 5]” registered a half-inhibitory concentration (IC50) in data set [1] of 0.047 µM. Moreover, the “CYP11B1 % I (100 nM)” value on CYP11B1 was found to be 97%. In data set [1], `Cc1noc(-c2cncn2C2c3ccccc3C(=O)OC2(C)C)n1` (racemic) [Entry 4, 3,3-dimethyl-4-[5-(3-methyl-[1,2,4]oxadiazol-5-yl)imidazol-1-yl]-isochroman-1-one] displayed a concentration for half-maximal inhibition (IC50) of 0.187 µM. The inhibition at 0.1 µM on CYP11B1 was found to be 100%.

Consider `CCCCc1cncn1C1c2ccccc2C(=O)OC1(C)C` (racemic) [Entry 6, 4-(5-butyl-imidazol-1-yl)-3,3-dimethyl-isochroman-1-one], for which the IC50 in data set [1] stood at 0.006 µM. On CYP11B1, the inhibition at 0.1 µM was determined as 100%. In data set [1], `CCc1cncn1C1c2ccccc2C(=O)OC12CCOCC2` (racemic) [Entry 10, [4-(5-ethyl-imidazol-1-yl)-isochroman-1-one]-3-spiro(4-tetrahydropyran)] came in with an IC50 of 0.314 µM. In addition, the inhibition at 0.1 µM at CYP11B1 turned out to be 90%.

In turn, `COC(=O)c1cncn1C1c2ccccc2C(=O)N(C)C1(C)C` (racemic) [Entry 11, 3-(2,3,3-trimethyl-1-oxo-1,2,3,4-tetrahydro-isoquinolin-4-yl)-3H-imidazole-4-carboxylic acid methyl ester] displayed an IC50 in data set [1] of 0.073 µM. The inhibition at 0.1 µM at CYP11B1 is 95%. For `COC(=O)c1cncn1C1c2ccccc2C(=O)N(C2CC2)C1(C)C` (racemic) [Entry 12, 3-(2-cyclopropyl-3,3-dimethyl-1-oxo-1,2,3,4-tetrahydro-isoquinolin-4-yl)-3H-imidazole-4-carboxylic acid methyl ester], half-maximal inhibition in data set [1] (IC50) required 0.53 µM. Further, on CYP11B1, the inhibition at 0.1 µM came out at 77%. Take `COC(=O)c1cncn1C1c2ccccc2C(=O)OC1(C)C` (single isomer, unassigned) [Entry 1, 3-(3,3-dimethyl-1-oxo-isochroman-4-yl)-3H-imidazole-4-carboxylic acid methyl ester]: the IC50 in data set [1] is 0.024 µM. The inhibition at 0.1 µM at CYP11B1 came to 100%. `CCOC(=O)c1cncn1C1c2ccccc2C(=O)OC1(C)C` (single isomer, unassigned) [Entry 2, 3-(3,3-dimethyl-1-oxo-isochroman-4-yl)-3H-imidazole-4-carboxylic acid ethyl ester]: 0.003 µM corresponded to half-maximal inhibition in data set [1] (IC50). Moreover, on CYP11B1, the inhibition at 0.1 µM is 94%. `CC1(C)OC(=O)c2ccccc2C1n1cncc1C(=O)Oc1ccccc1` (single isomer, unassigned) [Entry 3, 3-(3,3-dimethyl-1-oxo-isochroman-4-yl)-3H-imidazole-4-carboxylic acid phenyl ester]: the half-maximal inhibitory concentration (IC50) in data set [1] amounted to 0.003 µM. The inhibition at 0.1 µM on CYP11B1 is 97%. The corresponding values for `C=Cc1cncn1C1c2ccccc2C(=O)OC1(C)C` (single isomer, unassigned) [Entry 7, 4-(5-vinyl-imidazol-1-yl)-3,3-dimethyl-isochroman-1-one] are 0.022 µM and 100%. The corresponding values for `CCOCc1cncn1C1c2ccccc2C(=O)OC1(C)C` (single isomer, unassigned) [Entry 8, 4-(5-ethoxymethyl-imidazol-1-yl)-3,3-dimethyl-isochroman-1-one] are 0.017 µM and 100%. In turn, `CCc1cncn1C1c2ccccc2C(=O)OC12CCC2` (single isomer, unassigned) [Entry 9, [4-(5-ethyl-imidazol-1-yl)-isochroman-1-one]-3-spirocyclobutane] came in with an IC50 in data set [1] of 0.007 µM. Also, the inhibition at 0.1 µM at CYP11B1 was 100%.

`CCc1cncn1C1c2ccccc2C(=O)OC12CCC2` (stereo not shown) [Example 1(f), [4-(5-ethyl-imidazol-1-yl)-isochroman-1-one]-3-spirocyclobutane]: the melting point is 178 to 179 °C.
